Values of other authors in US9688630B2, “3,3′-disubstituted indolines as inhibitors of cholesterol ester transfer protein” (Merck Sharp & Dohme Corp., priority 2013, dated 2017).

Conditions: torcetrapib and atorvastatin concomitantly, compared with atorvastatin alone; cited from earlier work

**Q.** With `CCOC(=O)N1c2ccc(C(F)(F)F)cc2[C@@H](N(Cc2cc(C(F)(F)F)cc(C(F)(F)F)c2)C(=O)OC)C[C@H]1CC` [torcetrapib] as the compound, how does the incidence of mortality read?
**A.** Its incidence of mortality is “higher incidence of mortality”.
